# Experimental data published in patent US6358491B1, “Somatostatin analogs” (Berlex Laboratories, Inc., priority 1999, dated 2002).
# Read-outs that look alike come from different tables or passages of the source. *1 amine or outer side, *2 acyl side, *3 side chain or, on linkers, in order; H or OH if unused. Where a SMILES comes first, the peptide text is derived from it. Bridges are numbered along the chain shown (N, C = ends). Roman numbers before positions name the chains, in order. [ ]: non-standard residue; d: D form. ξ: configuration not given here. Phe(4-NH2) = Nc1ccc(C[C@H](N)C(=O)O)cc1; NMehCys = CN[C@@H](CCS)C(=O)O; Thr(3ξ) = CC(O)[C@H](N)C(=O)O; Dap = NC[C@H](N)C(=O)O; X1 = O=C(C[*:1])[*:2]
# What was measured:
# [1] = 24 hours post-injection, cited from earlier work
# [2] = patient, four cycles of treatment; cited from earlier work
# [3] = tested on: SSTRs, NCI-H69 membranes; assay: [125I]SST-14 binding to NCI-H69 cell membranes (SSTR affinity); set-up: species or system human; conditions: inhibition of [125I]SST-14 binding, two-site fit
# Experimental: (§1) [^125I-Tyr^11] somatostatin-14 ([^125I]SST-14) was obtained from Amersham. Unlabeled somatostatin-14 was purchased either from BACHEM (Torrance, Calif.) or from Sigma Chemical Co. (St. Louis, Mo.). Protease inhibitors, leupeptin, aprotinin, bacitracin, and benzamidine and other reagents were obtained from Sigma. Protease inhibitors were prepared in dimethylsulfoxide (DMSO) at a concentration 500×higher than the final assay concentration. The prepared protease solution was stored at −20° C. and diluted with the buffer solution before use.
# Membrane preparations used in these studies were prepared from two commercially available tumor cell lines, the human small cell lung cancer cell line, NCI-H69, and the rat pancreatic tumor cell line, AR42J, obtained from American Type Culture Collection (ATCC) (Manassas, Va.). NCI-H69 cells were maintained by serial passage in RPMI 1640 with 10% fetal calf serum. AR42J cells were maintained in F-12K medium containing 20% fetal calf serum. Cells in culture flasks were incubated at 37° C. with 5% CO2 in air atmosphere following the recommendations of the “Product Sheet” from ATCC.
# Cultured cells were first detached from plates with phosphate-buffered saline, pH 7.4, containing 2 mM EDTA, and centrifuged at 1,500×g for 10 min. Cells were then resuspended in 5-10 mL of the homogenization buffer (1 mM sodium bicarbonate, pH 7.4, 1 mM EDTA, 1 mM EGTA, 2.5 mM DTT, 5 μg/mL leupeptin, 5 μg/mL aprotinin, 100 μg/mL bacitracin, 100 μg/mL benzamidine) for 10 min on ice. The cells were lysed for 30 sec twice in a polytron with a setting at 5. The lysate was centrifuged at 1,000×g for 10 min at 4° C. The supernatant was centrifuged at 40,000×g for 20 min at 4° C. This step was repeated twice with the homogenization buffer in the absence of protease inhibitors. The pellet was then resuspended at 1-5 mg membrane protein/mL in 25 mM Tris, pH 7.4 without the addition of protease inhibitors and the membranes were stored at −80° C. before use. Membrane protein concentration was determined spectroscopically using the bicinchonic acid (BCA) protein assay kit (Pierce Chemical Inc. (Rockford, Ill.).
# All [^125I]SST-14 binding assays were performed in 0.5 mL binding buffer containing 50 mM HEPES, pH 7.5, 10 mM MgCl2, 0.25% BSA (w/v) containing protease inhibitors (same as above) and incubated at 37° C. for 45 minutes. After incubation, samples were kept at 4° C. and rapidly filtered under vacuum through a Whatman GF/B glass fiber filter with a 12-well harvester (Skatron Instruments Inc., Sterling, Va.). The filter was washed for 9 seconds with cold 50 mM HEPES, pH 7.5, 10 mM MgCl2, 0.25% BSA (w/v). Thirty-five […] of [^125I]SST-14 from Amersham was used in each tube. Peptides were solubilized in DMSO and serially diluted with DMSO. Five μL of peptide in DMSO was used to obtain the final concentration. DMSO (5 μL) was added to the tube without the addition of any peptide or unlabeled SST-14, so that each tube contained 1% DMSO. Non-specific binding was defined as the binding of [^125I]SST-14 which was not displaceable with an excess of unlabeled SST-14 at a concentration of 1×10^−6 M. The bound [^125I]SST-14 without or with excess unlabeled SST-14 (1×10^−6 M) was defined as total binding and nonspecific binding, respectively. The difference between total and nonspecific binding was defined as specific binding. The percent inhibition (% Inh) by peptide was expressed as
# % Inh=(total binding−total binding in the presence of peptide)/specific binding×100%
# Inclusion of protease inhibitors in homogenizing medium as well as assay buffer is essential to maintain the integrity of both [^125I]SST-14 and somatostatin analogs for the receptor binding assay and to obtain optimal specific binding. The highest specific binding was observed when MgCl2 (10 mM) was included. Membranes were finally resuspended in a sodium-free medium and receptor binding assays were performed in the absence of sodium ions. […]
# [4] = tested on: AR42J tumor xenografts; assay: Biodistribution of 99mTc-labeled compounds in nude mice with AR42J tumor xenografts; type: in vivo; conditions: 99mTc-labeled compound, 90 minutes post-injection; for TUMOR: i.v.; for T:B: tumor to blood ratio; for T:M: tumor to muscle ratio
# Experimental: (§2) Rat pancreatic AR42J cells (ATCC, Rockville, Md., USA) were grown in Modified Ham's F12K medium (Cat. No. N-3520, Sigma, St. Louis, Mo., USA) containing 20% fetal bovine serum (FCS) (Cat. No. 1224, Lot No. 9702058, Sigma, St. Louis, Mo., USA) under sterile conditions in 95% humidity and 5% CO2. At a density of approximately 10×10^6 cells per T150 flask, the cells were harvested with trypsin and collected by centrifugation at 2400 rpm (800×g) for 15 minutes in a benchtop centrifuge (IEC Centra-8 tabletop centrifuge, International Equipment Company, Needham, Mass., USA). The cells were resuspended in medium containing 20% FCS for implantation.
# (§3) Six female nude mice (CrlLNU/NU-nuBR, 6-8 weeks old) were injected subcutaneously into the right flank with tumor cells (2×10^7/100 μL) in 20% matrigel (Collaborative Biomedical Products, Chicago, Ill., USA). Fourteen days after inoculation tumors were visible in all animals. Three weeks after inoculation, tumors were aseptically dissected, minced and implanted into 60 nude mice using a trochar. The tumor xenografts from the second passage were used for biodistribution studies.
# (§4) A dose of approximately 50-100 μCi ^99mTc-labeled compound/mouse was injected intravenously in a total volume of 100 μL. Mice were sacrificed 90 minutes post-injection by decapitation and the trunk blood was collected. Tumors (1 to 3 per mouse), liver, gastrointestinal tract, kidneys, and samples of muscle from both legs (quadriceps femoralis) were collected, weighed, and counted for radioactivity.
# [5] = tested on: SSTRs, AR42J cell membranes; assay: [125I]SST-14 binding to AR42J cell membranes (SSTR affinity); set-up: species or system rat; conditions: inhibition of [125I]SST-14 binding; two-site fit; read-out: IC50 Values for AR42J Cell Membranes (first value)
# Experimental: as §1
# Membrane preparations used in these studies were prepared from two commercially available tumor cell lines, the human small cell lung cancer cell line, NCI-H69, and the rat pancreatic tumor cell line, AR42J, obtained from American Type Culture Collection (ATCC) (Manassas, Va.). […]
# Cultured cells were first detached from plates with phosphate-buffered saline, pH 7.4, containing 2 mM EDTA, and centrifuged at 1,500×g for 10 min. […] Membrane protein concentration was determined spectroscopically using the bicinchonic acid (BCA) protein assay kit (Pierce Chemical Inc. (Rockford, Ill.).
# All [^125I]SST-14 binding assays were performed in 0.5 mL binding buffer containing 50 mM HEPES, pH 7.5, 10 mM MgCl2, 0.25% BSA (w/v) containing protease inhibitors (same as above) and incubated at 37° C. for 45 minutes. […] The percent inhibition (% Inh) by peptide was expressed as […]
# [6] = Biodistribution of 99mTc-labeled compounds in nude mice with AR42J tumor xenografts; type: in vivo; conditions: nude, mouse, iv, total radioactivity, 99mTc-labeled compound, 90 minutes post-injection; for tissue uptake dose at 1.5 h: i.v.
# Experimental: as §2, §3, §4
# [7] = read-out: IC50 Values for Uncomplexed Compounds, NCI-H69 (first value)
# [8] = read-out: IC50 Values for Uncomplexed Compounds, NCI-H69 (second value)
"IC50 [3, 7] [nM]","IC50 [3, 8] [nM]",TUMOR [4] [%ID/g],T:B [4],T:M [4],Compound,also measured
,,,,,^111In-DOTA-lanreotide,retention in human liver [1]: about 3.2 % injected dose; retention in kidney ([1]; human): about 2.5 % injected dose; retention in spleen ([1]; human): about 1.2 % injected dose
,,,,,^90Y-DOTA-lanreotide,90Y kidney doses [2]: 1.98-2.43 mGy/MBq; spleen doses [2]: 1.68-3.35 mGy/MBq
0.505,744,10.3,24,96,C[C@@H](O)[C@@H]1NC(=O)[C@H](CCCCN)NC(=O)[C@@H](Cc2c[nH]c3ccccc23)NC(=O)[C@H](Cc2ccc(O)cc2)NC(=O)[C@H](CCSCC(=O)NC[C@H](N)C(=O)N[C@@H](CCCN)C(=O)N[C@@H](CS)C(=O)N[C@H](CO)[C@@H](C)O)N(C)C(=O)[C@H](Cc2ccccc2)NC1=O [cyclo-Tyr-D-Trp-Lys-Thr-Phe-(N—CH3)Hcy(CH2 CO-β-Dap-Orn-Cys-Thr(ol))],
1.63,24300,3.81,30,95,C[C@@H](O)[C@H](NC(=O)CSCC[C@H]1C(=O)N[C@@H](Cc2ccc(O)cc2)C(=O)N[C@H](Cc2c[nH]c3ccccc23)C(=O)N[C@@H](CCCCN)C(=O)N[C@@H]([C@@H](C)O)C(=O)N[C@@H](Cc2ccccc2)C(=O)N1C)C(=O)NCC(=O)NCC(=O)N[C@@H](CS)C(N)=O [cyclo-Tyr-D-Trp-Lys-Thr-Phe-(N—CH3)Hcy(CH2 CO-Thr-Gly-Gly-Cys-NH2)],
0.861,,15.5,29,96,C[C@@H](O)[C@@H]1NC(=O)[C@H](CCCCN)NC(=O)[C@@H](Cc2c[nH]c3ccccc23)NC(=O)[C@H](Cc2ccc(O)cc2)NC(=O)[C@H](CCSCC(=O)NC[C@H](N)C(=O)N[C@@H](Cc2c[nH]cn2)C(=O)N[C@@H](CS)C(=O)N[C@H](CO)[C@@H](C)O)N(C)C(=O)[C@H](Cc2ccccc2)NC1=O [cyclo-Tyr-D-Trp-Lys-Thr-Phe-(N—CH3)Hcy(CH2 CO-β-Dap-His-Cys-Thr(ol))],
0.501,< 0.001,31.8,81,188,C[C@@H](O)[C@@H]1NC(=O)[C@H](CCCCN)NC(=O)[C@@H](Cc2c[nH]c3ccccc23)NC(=O)[C@H](Cc2ccc(O)cc2)NC(=O)[C@H](CCSCC(=O)NC[C@H](N)C(=O)N[C@@H](Cc2ccc(N)cc2)C(=O)N[C@@H](CS)C(=O)N[C@H](CO)[C@@H](C)O)N(C)C(=O)[C@H](Cc2ccccc2)NC1=O [cyclo-Tyr-D-Trp-Lys-Thr-Phe-(N—CH3)Hcy(CH2 CO-β-Dap-Phe(4-NH2)-Cys-Thr(ol))],
0.201,8.91,24.7,29,127,CC(O)[C@H](NC(=O)[C@H](CS)NC(=O)[C@H](Cc1ccc(N)cc1)NC(=O)[C@@H](N)CNC(=O)CSCC[C@H]1C(=O)N[C@@H](Cc2ccc(O)cc2)C(=O)N[C@H](Cc2c[nH]c3ccccc23)C(=O)N[C@@H](CCCCN)C(=O)N[C@@H](C(C)O)C(=O)N[C@@H](Cc2ccccc2)C(=O)N1C)C(=O)N[C@@H](CO)C(=O)O (stereo partly drawn) [cyclo-Tyr-D-Trp-Lys-Thr-Phe-(N—CH3)Hcy(CH2CO-β-Dap-Phe(4—NH2)-Cys-Thr-Ser)] (I: cyclo(F[NMehCys]Y[dW]K[Thr(3ξ)]) / II: H-[Dap][Phe(4-NH2)]C[Thr(3ξ)]S-OH; linker I:2-II:1 via X1),"IC50 [5]: 0.433 nM; tissue uptake dose at 1.5 h ([6]; gastrointestinal tract, read-out: GI): 8 %ID; tissue uptake at 1.5 h ([6]; kidneys): 4.8 %ID/g; tissue uptake dose at 1.5 h ([6]; spleen, read-out: Spleen): 0.21 %ID; dose excreted at 1.5 h ([6]; urine): 59%"
